From article PMC5400251, “Effect of quinoline based 1,2,3-triazole and its structural analogues on growth and virulence attributes of Candida albicans” (PLoS ONE, 2017)
≈ marks a conversion by molar mass, not a printed value.

Assays:
[1] = system: C. albicans D15.9 (FLC-resistant clinical isolate); test: Broth dilution IC50 / MIC determination; format: cell-based; conditions: Candida albicans; for IC50: 24 h, read-out: Anti-Candida Activity (IC50± S.D.) C. albicans D15.9
Method: (§1) Broth dilution technique was employed to determine the IC50 values of all the synthesized 1,2,3 triazole derivatives (3a-c) against C. albicans ATCC 90028, C. glabrata ATCC 90030, C. tropicalis ATCC 750 and four clinical isolates of C. albicans namely D27, D31, D39 (FLC-sensitive) and D15.9 (FLC-resistant). The strains were maintained on yeast extract:peptone:dextrose ([…]) nutrient agar (2.5%) slants at 4°C. The test compounds were dissolved in DMSO with less than 4% concentration of it in the final test volume. Different concentrations (1000… 7.8 μg/mL) of test compounds in Sabouraud dextrose (SD) broth medium were dispensed into the wells, then inoculated with the test organism with approx. 2.5 × 10^3 cells/mL and incubated at 37°C for 24 h. After incubation period, the optical density was measured at 600 nm by using Thermo Scientific Multiskan Go plate reader. […] All the experiments were done in triplicate at separate times.

[2] = system: C. albicans D27 (FLC-sensitive clinical isolate); test: Broth dilution IC50 determination; format: cell-based; conditions: Candida albicans, 24 h; read-out: Anti-Candida Activity (IC50± S.D.) C. albicans D27
Method: as §1

[3] = system: C. albicans D31 (FLC-sensitive clinical isolate); test: Broth dilution IC50 determination; format: cell-based; conditions: Candida albicans, 24 h; read-out: Anti-Candida Activity (IC50± S.D.) C. albicans D31
Method: as §1

C. glabrata ATCC 90030 = test: Broth dilution IC50 determination; format: cell-based; conditions: Nakaseomyces glabratus, ATCC90030, SD broth, 37°C, 24 h, OD 600 nm, read-out: Anti-Candida Activity (IC50± S.D.) C. glabrata ATCC90030
Method: as §1

C. tropicalis ATCC 750 = test: Broth dilution IC50 determination; format: cell-based; conditions: Candida tropicalis, ATCC750, SD broth, 37°C, 24 h, OD 600 nm, read-out: Anti-Candida Activity (IC50± S.D.) C. tropicalis ATCC750
Method: as §1

C. albicans ATCC 90028 = test: Broth dilution IC50 determination; format: cell-based; conditions: Candida albicans, ATCC90028, SD broth, 37°C, 24 h, OD 600 nm, read-out: Anti-Candida Activity (IC50± S.D.) C. albicans ATCC90028
Method: as §1

[4] = system: C. albicans D39 (FLC-sensitive clinical isolate); test: Broth dilution IC50 determination; format: cell-based; conditions: Candida albicans, 24 h; read-out: Anti-Candida Activity (IC50± S.D.) C. albicans D39
Method: as §1

[5] = Cell proliferation assay (cytotoxicity); format: cell-based; conditions: monkey, Vero cells (monkey kidney fibroblasts), positive control
Method: The in vitro cytotoxicity of compounds 3a and 3b to mammalian cells was also determined. The assay was performed in 96-well tissue culture-treated plates as described earlier. Vero cells (monkey kidney fibroblasts) were seeded to the wells of 96-well plate at a density of 25,000 cells/well and incubated for 24 h. Samples at different concentrations were added and plates were again incubated for 48 h. The number of viable cells was determined by Neutral Red assay. IC50 values were obtained from dose response curves. Doxorubicin was used as a positive control for cytotoxicity.

ergosterol biosynthesis [6] = test: Ergosterol estimation assay; conditions: 40 μg/mL of FLC, 16 h
[7] = system: C. albicans ATCC 90028, C. albicans D27 (FLC-susceptible) and C. albicans D15.9 (FLC-resistant); test: Time kill curve study, three strains; format: cell-based; conditions: 40 μg/mL; C. albicans standard and FLC-resistant
Method: Time-kill curves were used for testing the fungicidal or fungistatic nature of the lead inhibitors 3a and 3b. The experimental procedure was performed according to the method reported by Wang et al.. C. albicans ATCC 90028, C. albicans D27 (FLC-susceptible) and C. albicans D15.9 (FLC-resistant) strains were used as test organisms. Fluconazole was used as a positive control. Freshly prepared sterile YEPD medium was inoculated by fresh culture (approx. 2×10^3 cells) of test organisms in different conical flasks. The cells were exposed to the test compounds at 2MIC, MIC and MIC/2 values, separately. All the conical flasks having different sets of test compounds and concentrations were incubated at 37°C and 160 rpm. At predetermined time points (0, 4, 12, 24, and 48 h after incubation with agitation at 37°C), a 100-μL aliquot was removed from every solution and appropriately diluted in sterile water. A 100-μl aliquot from each dilution was spread over the YEPD agar plate. Colony counts were determined after incubation at 37°C for 24 h. All the time-kill curve experiments were conducted in duplicate and mean colony count data (log10 CFU/mL) were plotted as a function of time for each strain.

ergosterol biosynthesis [8] = test: Ergosterol estimation assay; conditions: 40 μg/mL of FLC, 16 h; remark: listed apart in the source
C. albicans = test: Disk diffusion assay, appearance of zones (strains not distinguished); format: cell-based
Method: (§2) Disk diffusion assay was performed using C. albicans ATCC 90028 (standard), the two clinical isolates, C. albicans D27 (FLC-susceptible), and C. albicans D15.9 (FLC-resistant) for the lead inhibitors 3a and 3b. The C. albicans cells were inoculated into liquid SD medium and grown over night at 37°C. The cells were then centrifuged at 3000 rpm for 5 min, washed three times with PBS and then suspended in PBS again. Approximately, 10^5 cells/mL were inoculated into molten SD agar medium at 42°C and poured into 100-mm-diameter petriplates. Sterilized 4 mm disks of Whatman paper were placed on solid agar and 1, 2, and 4 μL of 3a and 2, 4, and 8 μL of 3b from the stock solution of 10 mg/mL were spotted on the disk. […] The diameter of zone of inhibition (ZOI) was recorded in millimetres after 48 h and was compared with that of control. This experiment was repeated thrice and values were shown in terms of mean ±standard error of mean.

Hemolytic assay = format: cell-based; conditions: human, 37°C, read-out: Hemolysis of hRBCs
Method: Human blood from a healthy individual was collected in tubes containing EDTA as anti-coagulant. The erythrocytes were harvested by centrifugation for 10 min at 2000 rpm and 20°C, washed three times in PBS. To the pellet, PBS was added to yield a 10% (v/v) erythrocytes/PBS suspension. The 10% suspension was then diluted 1:10 in PBS. From each suspension, 100 μL was added in triplicate to 100 μL of a different dilution series of test compounds in the same buffer in micro centrifuge tubes. […] The tubes were incubated for 1 h at 37°C and then centrifuged for 10 min at 2000 rpm and 20°C. From the supernatant, 150 μL was transferred to a flat-bottomed microtiter plate (Tarson), and the absorbance was measured spectrophotometrically at 450 nm. The hemolysis percentage was calculated by following equation: %Hemolysis=[(A450oftestcompoundtreatedsample−A450ofbuffertreatedsample)÷(A450of1%TritonX−100treatedsample−A450ofbuffertreatedsample)]×100

[9] = system: C. albicans ATCC 90028 (Standard); test: Growth assay (growth curve); format: cell-based; conditions: 40 μg/mL of FLC
Method: (§3) The C. albicans cells were freshly revived by subculture on the SD agar plate. A loopful of inoculum was introduced into the SD broth and cells were grown for 16 h at 37°C before use. Approximately 2×10^3 cells/mL were then inoculated into the freshly prepared 50 mL sterile SD medium. […] At predetermined time periods (0, 2, 4, 6, 8, 10, 12, 14, 16, 18, 20 22, and 24 after incubation with agitation at 37°C), 1 mL aliquot of each sample was removed from the conical flask and growth was measured tubidometrically at 600 nm using Thermo Multiskan spectrophotometer. Optical density was recorded for each concentration against time (h).

[10] = system: C. albicans D15.9 (FLC-resistant); test: Growth assay (growth curve); format: cell-based; conditions: 40 μg/mL of FLC
Method: as §3

[11] = system: C. albicans D27 (FLC-susceptible); test: Growth assay (growth curve); format: cell-based; conditions: 40 μg/mL of FLC
Method: as §3

[12] = system: C. albicans ATCC 90028 (Standard); test: Disk diffusion assay; format: cell-based; conditions: 20 μg per disk, 48 h
Method: as §2

[13] = system: C. albicans D15.9 (FLC-resistant); test: Disk diffusion assay; format: cell-based; conditions: 48 h
Method: as §2

[14] = system: C. albicans D27 (FLC-susceptible); test: Disk diffusion assay; format: cell-based; conditions: Candida albicans; 20 μg per disk, 48 h; read-out: Zone of Inhibition
Method: as §2

[15] = target: T1, plasma membrane H+ ATPase (Candida albicans, UniProt P28877); test: Proton extrusion measurement (H+ efflux); format: cell-based, C. albicans D27 (FLC-susceptible)
T1 construct: endogenous in cells; host or cells: C. albicans ATCC 90028; clinical isolates C. albicans D27 (FLC-susceptible) and D15.9 (FLC-resistant); mid-log phase whole cells
Method: (§4) The proton pumping activity of C. albicans was determined by monitoring acidification of external medium by measuring pH as describe earlier. In brief, the mid-log phase cells were harvested from SD medium by centrifugation at 3000 rpm for 15 min which is followed by three washings with phosphate buffer saline (PBS). A solution containing 0.1 M KCl and 0.1 mM CaCl2 in distilled water was prepared. Compounds 3a and 3b at the concentrations of 50 and 100 μg/mL were separately added in this solution. […] Initial pH was adjusted to 7.0 using 0.01 M HCl/NaOH. Approximately 0.2 g of cells were suspended in each set of solution. Suspension was kept in a double-jacketed glass container with constant stirring. Again, the pH of suspension was maintained as 7.0 for 1 min by using 0.01 N NaOH. The rate of H^+ extrusion was then monitored and calculated from the volume of 0.01 N NaOH consumed per min per mg weight of cells. Glucose has been reported as the stimulator of proton extrusion pump. Therefore above experiment was also repeated in the presence of 5 mM of glucose.

[16] = target: T1, plasma membrane H+ ATPase; test: cell-based; set-up: species or system C. albicans D15.9 (FLC-resistant)
Method: as §4

[17] = target: T1, plasma membrane H+ ATPase; test: Proton extrusion measurement (H+ efflux); format: cell-based, C. albicans ATCC 90028; conditions: glucose 5mM alone
Method: as §4

T1 sequence (P28877 whole entry): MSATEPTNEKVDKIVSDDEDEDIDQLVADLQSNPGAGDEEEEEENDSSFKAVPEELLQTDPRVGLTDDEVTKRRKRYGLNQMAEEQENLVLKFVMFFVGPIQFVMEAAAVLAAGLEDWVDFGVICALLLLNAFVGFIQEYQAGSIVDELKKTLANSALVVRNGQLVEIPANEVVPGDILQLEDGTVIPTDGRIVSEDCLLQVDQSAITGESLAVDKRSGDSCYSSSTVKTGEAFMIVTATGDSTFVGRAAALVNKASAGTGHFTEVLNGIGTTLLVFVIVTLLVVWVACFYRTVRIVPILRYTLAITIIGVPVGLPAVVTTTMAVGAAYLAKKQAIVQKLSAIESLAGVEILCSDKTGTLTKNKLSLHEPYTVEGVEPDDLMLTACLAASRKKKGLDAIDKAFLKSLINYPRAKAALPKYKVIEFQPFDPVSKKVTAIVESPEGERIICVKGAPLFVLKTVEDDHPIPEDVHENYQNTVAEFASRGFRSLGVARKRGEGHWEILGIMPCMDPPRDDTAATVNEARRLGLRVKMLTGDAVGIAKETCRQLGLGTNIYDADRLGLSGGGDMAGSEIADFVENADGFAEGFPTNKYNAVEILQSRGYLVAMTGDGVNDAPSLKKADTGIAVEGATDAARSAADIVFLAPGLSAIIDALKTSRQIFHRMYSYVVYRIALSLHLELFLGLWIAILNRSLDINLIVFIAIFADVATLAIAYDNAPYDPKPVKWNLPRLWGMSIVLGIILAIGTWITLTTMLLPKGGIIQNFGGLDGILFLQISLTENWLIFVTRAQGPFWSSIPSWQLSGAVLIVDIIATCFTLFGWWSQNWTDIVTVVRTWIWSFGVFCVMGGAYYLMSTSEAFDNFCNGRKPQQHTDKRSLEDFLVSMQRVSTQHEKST

c1ccc(Cn2cc(COc3cccc4ccccc34)nn2)cc1 [Compound 3c, 1-Benzyl-4-((naphthalen-1-yloxy)methyl)-1H-1,2,3-triazole]
IC50 [1]: 66.9 ± 1.84 µg/mL (≈ 212 µM)
IC50 [2]: 43.7 ± 1.18 µg/mL (≈ 139 µM)
IC50 [3]: 119 ± 2.94 µg/mL (≈ 377 µM)
IC50 (C. glabrata ATCC 90030): 107 ± 1.41 µg/mL (≈ 339 µM)
IC50 (C. tropicalis ATCC 750): 38.2 ± 0.83 µg/mL (≈ 121 µM)
IC50 (C. albicans ATCC 90028): 91.2 ± 0.76 µg/mL (≈ 289 µM)
IC50 [4]: 62.2 ± 1.07 µg/mL (≈ 197 µM)

COc1cccc2c1C(=O)c1c(O)c3c(c(O)c1C2=O)C[C@@](O)(C(=O)CO)C[C@@H]3O[C@H]1C[C@H](N)[C@H](O)[C@H](C)O1 [Doxorubicin]
IC50 at 48 h [5]: > 5 µg/mL

OC(Cn1cncn1)(Cn1cncn1)c1ccc(F)cc1F [FLC, Fluconazole, reference compound]
Decrease in ergosterol content (ergosterol biosynthesis [6]): 100%
CFU/mL, treated versus untreated cells [7]: no significant difference in CFU/mL
Decrease in ergosterol content (ergosterol biosynthesis [8]): 96%
Appearance of zone around disks (clear = fungicidal nature, turbid = fungistatic nature) (C. albicans): turbid
hemolysis at 1 h, 500 μg/mL (Hemolytic assay): 68.6%
Time by which lag phase was over [9]: 16 h
Time by which lag phase was over [10]: 16 h
Time by which lag phase was over [11]: 20 h
MIC [1]: > 1 µg/mL
IC50 [1]: > 1000 µg/mL
IC50 [2]: < 7.5 µg/mL
IC50 [3]: < 7.5 µg/mL
IC50 (C. glabrata ATCC 90030): 7.81 ± 0.88 µg/mL (≈ 25.5 µM)
IC50 (C. tropicalis ATCC 750): 8.55 ± 1.59 µg/mL (≈ 27.9 µM)
IC50 (C. albicans ATCC 90028): 15.6 ± 0.65 µg/mL (≈ 51 µM)
IC50 [4]: < 7.5 µg/mL
Zone of Inhibition [12]: 26± 1.02 mm
zone of inhibition at 20 µg/disc ([12]; Candida albicans, ATCC90028): 26 mm
Zone of Inhibition ([13]; 20 μg per disk): 24± 0.74 mm
zone of inhibition at 20 µg/disc ([13]; Candida albicans): 24 mm
zone of inhibition at 20 µg/disc [14]: 27 ± 1.35 mm

OC[C@H]1OC(O)[C@H](O)[C@@H](O)[C@@H]1O (stereo partly shown) [Glucose, reference compound]
Increase of the rate of H+ extrusion ([15]; 5 mM of glucose): 24%
Range of relative H+ efflux rate ([15]; glucose 5mM alone): 40.00 ± 2.0 ×10^−6 mol min^−1 mg cells^−1
Increase of the rate of H+ extrusion ([16]; 5 mM of glucose): 36%
Range of relative H+ efflux rate ([16]; glucose 5mM alone): 43.33 ± 2.1 ×10^−6 mol min^−1 mg cells^−1
Range of relative H+ efflux rate [17]: 54.95 ± 2.7 ×10^−6 mol min^−1 mg cells^−1
